Assay results taken from patent publication US20140163226A1, “NOVEL PYRIMIDINE DERIVATIVE AND PHARMACEUTICAL COMPOSITION INCLUDING SAME AS AN ACTIVE INGREDIENT” (HANMI PHARMACEUTICAL CO., LTD., priority 2011, published 2014).
pIC50: −log10 of the molar value.

Biological target: T1, DGAT1 (Homo sapiens, UniProt O75907)
T1 construct: host or cells: HepG2 cell homogenate (supernatant after sonication and 2000×g centrifugation)
T1 sequence (O75907 1-488): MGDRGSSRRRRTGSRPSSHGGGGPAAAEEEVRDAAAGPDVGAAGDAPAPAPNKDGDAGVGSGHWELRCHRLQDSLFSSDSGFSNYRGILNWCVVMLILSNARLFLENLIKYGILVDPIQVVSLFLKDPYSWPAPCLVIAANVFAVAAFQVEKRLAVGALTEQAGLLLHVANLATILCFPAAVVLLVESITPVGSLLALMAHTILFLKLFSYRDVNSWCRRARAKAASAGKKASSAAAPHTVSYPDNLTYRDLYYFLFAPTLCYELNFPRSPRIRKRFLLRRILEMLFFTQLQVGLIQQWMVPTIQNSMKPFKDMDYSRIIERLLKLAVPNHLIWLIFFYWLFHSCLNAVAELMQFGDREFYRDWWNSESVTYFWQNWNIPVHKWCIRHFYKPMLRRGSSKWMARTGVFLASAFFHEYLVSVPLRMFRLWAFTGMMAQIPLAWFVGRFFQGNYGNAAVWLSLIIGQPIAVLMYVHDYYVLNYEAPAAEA
Assay: Assay for inhibition of DGAT1 activity (IC50), in vitro enzymatic assay using homogenates of HepG2 cell line
Format: biochemical
Settings: inhibitory activity against DGAT1; HepG2 protein (25 μg), 1,2-dioleoyl-sn-glycerol (30 μM), 14C oleoyl coenzyme A (10 μM), room temperature, 60 mins
Method: In order to identify DGAT1 inhibitors, in vitro enzymatic assays were performed by using homogenates of HepG2 cell line (ATCC, USA, HB-8065). Briefly stated, HepG2 cells were inoculated in 10% FBS-supplemented medium at 1.0×10^7 cells/well, cultured at 37° C., and harvested 72 hrs later. The harvested cells were lysed by ultrasonic treatment, and centrifuged for at 4° C. (2000×g, 10 mins) to remove any uncracked cells and impurities. The supernatant thus formed was obtained, and stored at −70° C. after its protein contents were quantitatively analyzed.
DGAT1 activation was assayed by a modification of the method described by Coleman (Methods in Enzymology, 1992, 209, 98-102). The compound of the present invention ([…]) was incubated with HepG2 protein (25 μg), MgCl2 (150 mM) and 1,2-dioleoyl-sn-glycerol (30 μM) in a total assay volume of 200 μL in plastic tubes.
The reaction was started by adding ^14C oleoyl coenzyme A (10 μM final concentration) and incubated at room temperature for 60 mins. The reaction was ended when a mixed solution (300 μL) of 2-propanol and heptane (7:1) was added thereto. Radioactive triolein product was separated into the organic phase by adding heptane (200 μL) and 1.0 M carbonate buffer (200 μL, pH 9.5). DGAT1 activity was quantified by counting aliquots of the upper heptane layer by liquid […].

O=C(O)Cc1ccc(-c2csc3c(-c4ccc(NC(=O)Nc5ccccc5)cc4)ncnc23)cc1 [Example 1, 2-(4-(4-(4-(3-phenylureido)phenyl)thieno[3,2-d]pyrimidin-7-yl)phenyl)acetic acid]
pIC50: > 8.30

O=C(O)Cc1ccc(-c2csc3c(-c4ccc(NC(=O)Nc5cccc(Cl)c5)cc4)ncnc23)cc1 [Example 2, 2-(4-(4-(4-(3-(3-chlorophenyl)ureido)phenyl)thieno[3,2-d]pyrimidin-7-yl)phenyl)acetic acid]
pIC50: > 9.00

O=C(Nc1ccc(-c2ncnc3c(-c4ccc(C(=O)O)cc4)csc23)cc1)Nc1cccc(Cl)c1 [Example 3, 4-(4-(4-(3-(3-chlorophenyl)ureido)phenyl)thieno[3,2-d]pyrimidin-7-yl)benzoic acid]
pIC50: > 9.00

O=C(O)Cc1ccc(-c2csc3c(-c4ccc(NC(=O)Nc5ccc(F)c(F)c5)cc4)ncnc23)cc1 [Example 4, 2-(4-(4-(4-(3-(3,4-difluorophenyl)ureido)phenyl)thieno[3,2-d]pyrimidin-7-yl)phenyl)acetic acid]
pIC50: > 9.00

O=C(O)CCc1ccc(-c2csc3c(-c4ccc(NC(=O)Nc5cccc(Cl)c5)cc4)ncnc23)cc1 [Example 7, 3-(4-(4-(4-(3-(3-chlorophenyl)ureido)phenyl)thieno[3,2-d]pyrimidin-7-yl)phenyl)propanoic acid]
pIC50: > 9.00

O=C(O)CCc1ccc(-c2csc3c(-c4ccc(NC(=O)Nc5ccc(F)c(F)c5)cc4)ncnc23)cc1 [Example 14, 3-(4-(4-(4-(3-(3,4-difluorophenyl)ureido)phenyl)thieno[3,2-d]pyrimidin-7-yl)phenyl)propanoic acid]
pIC50: > 8.30

COc1ccc(NC(=O)Nc2ccc(-c3ncnc4c(-c5ccc(CCC(=O)O)cc5)csc34)cc2)cc1 [Example 15, 3-(4-(4-(4-(3-(4-methoxyphenyl)ureido)phenyl)thieno[3,2-d]pyrimidin-7-yl)phenyl)propanoic acid]
pIC50: > 8.30

O=C(O)Cc1ccc(-c2csc3c(-c4ccc(NC(=O)NC5CCCCC5)cc4)ncnc23)cc1 [Example 16, 2-(4-(4-(4-(3-cyclohexylureido)phenyl)thieno[3,2-d]pyrimidin-7-yl)phenyl)acetic acid]
pIC50: > 9.00

COc1ccccc1NC(=O)Nc1ccc(-c2ncnc3c(-c4ccc(CCC(=O)O)cc4)csc23)cc1 [Example 20, 3-(4-(4-(4-(3-(2-methoxyphenyl)ureido)phenyl)thieno[3,2-d]pyrimidin-7-yl)phenyl)propanoic acid]
pIC50: > 8.30

Cc1ccc(NC(=O)Nc2ccc(-c3ncnc4c(-c5ccc(CCC(=O)O)cc5)csc34)cc2)cc1 [Example 21, 3-(4-(4-(4-(3-p-tolylureido)phenyl)thieno[3,2-d]pyrimidin-7-yl)phenyl)propanoic acid]
pIC50: > 9.00

COc1cc(NC(=O)Nc2ccc(-c3ncnc4c(-c5ccc(CCC(=O)O)cc5)csc34)cc2)cc(OC)c1OC [Example 24, 3-(4-(4-(4-(3-(3,4,5-trimethoxyphenyl)ureido)phenyl)thieno[3,2-d]pyrimidin-7-yl)phenyl)propanoic acid]
pIC50: > 8.30

NC(=O)CCc1ccc(-c2csc3c(-c4ccc(NC(=O)Nc5cccc(Cl)c5)cc4)ncnc23)cc1 [Example 28, 3-(4-(4-(4-(3-(3-chlorophenyl)ureido)phenyl)thieno[3,2-d]pyrimidin-7-yl)phenyl)propanamide]
pIC50: > 8.30

O=C(O)CCc1ccc(-c2csc3c(-c4ccc(NC(=O)Nc5cccc(Cl)c5)cc4)ncnc23)cc1F [Example 30, 3-(4-(4-(4-(3-(3-chlorophenyl)ureido)phenyl)thieno[3,2-d]pyrimidin-7-yl)-2-fluorophenyl)propanoic acid]
pIC50: > 9.00

CS(=O)(=O)c1ccc(-c2csc3c(-c4ccc(NC(=O)Nc5cccc(Cl)c5)cc4)ncnc23)cc1 [Example 31, 1-(3-chlorophenyl)-3-(4-(7-(4-(methylsulfon)phenyl)thieno[3,2-d]pyrimidin-4-yl)phenyl)urea]
pIC50: > 8.00

O=C(O)Cc1ccc(-c2csc3c(-c4ccc(NC(=O)Nc5ccnc(Cl)c5)cc4)ncnc23)cc1 [Example 34, 2-(4-(4-(4-(3-(2-chloropyridin-4-yl)ureido)phenyl)thieno[3,2-d]pyrimidin-7-yl)phenyl)acetic acid]
pIC50: > 8.00

CN(C)c1ccc(NC(=O)Nc2ccc(-c3ncnc4c(-c5ccc(CC(=O)O)cc5)csc34)cc2)cc1 [Example 35, 2-(4-(4-(4-(3-(4-(dimethylamino)phenyl)ureido)phenyl)thieno[3,2-d]pyrimidin-7-yl)phenyl)acetic acid]
pIC50: > 8.00

O=C(O)CCc1ccc(-c2csc3c(-c4ccc(NC(=O)Nc5cccc(F)c5)cc4)ncnc23)cc1 [Example 39, 3-(4-(4-(4-(3-(3-fluorophenyl)ureido)phenyl)thieno[3,2-d]pyrimidin-7-yl)phenyl)propanoic acid]
pIC50: > 9.00

CN(C)c1ccc(NC(=O)Nc2ccc(-c3ncnc4c(-c5ccc(CCC(=O)O)cc5)csc34)cc2)cc1 [Example 40, 3-(4-(4-(4-(3-(4-(dimethylamino)phenyl)ureido)phenyl)thieno[3,2-d]pyrimidin-7-yl)phenyl)propanoic acid]
pIC50: > 9.00

O=C(O)CCc1ccc(-c2csc3c(-c4ccc(NC(=O)Nc5cc(Cl)ccn5)cc4)ncnc23)cc1 [Example 42, 3-(4-(4-(4-(3-(4-chloropyridin-2-yl)ureido)phenyl)thieno[3,2-d]pyrimidin-7-yl)phenyl)propanoic acid]
pIC50: > 8.30

O=C(O)CCc1ccc(-c2csc3c(-c4ccc(NC(=O)Nc5ccc(N6CCOCC6)cc5)cc4)ncnc23)cc1 [Example 44, 3-(4-(4-(4-(3-(4-morpholinophenyl)ureido)phenyl)thieno[3,2-d]pyrimidin-7-yl)phenyl)propanoic acid]
pIC50: > 8.00

COc1ccc(Cl)c(NC(=O)Nc2ccc(-c3ncnc4c(-c5ccc(CCC(=O)O)cc5)csc34)cc2)c1 [Example 46, 3-(4-(4-(4-(3-(2-chloro-5-methoxyphenyl)ureido)phenyl)thieno[3,2-d]pyrimidin-7-yl)phenyl)propanoic acid]
pIC50: > 8.30

O=C(O)CCc1ccc(-c2csc3c(-c4ccc(NC(=O)Nc5ccc(-c6nn[nH]n6)cc5)cc4)ncnc23)cc1 [Example 49, 3-(4-(4-(4-(3-(4-(2H-tetrazol-5-yl)phenyl)ureido)phenyl)thieno[3,2-d]pyrimidin-7-yl)phenyl)propanoic acid]
pIC50: > 9.00

CN1CCN(c2ccc(NC(=O)Nc3ccc(-c4ncnc5c(-c6ccc(CCC(=O)O)cc6)csc45)cc3)cc2)CC1 [Example 50, 3-(4-(4-(4-(3-(4-(4-methylpiperazin-1-yl)phenyl)ureido)phenyl)thieno[3,2-d]pyrimidin-7-yl)phenyl)propanoic acid]
pIC50: > 7.70

CN1CCC(NC(=O)Nc2ccc(-c3ncnc4c(-c5ccc(CCC(=O)O)cc5)csc34)cc2)CC1 [Example 51, 3-(4-(4-(4-(3-(1-methylpiperidin-4-yl)ureido)phenyl)thieno[3,2-d]pyrimidin-7-yl)phenyl)propanoic acid]
pIC50: > 9.00

O=C(O)CCc1ccc(-c2csc3c(-c4ccc(NC(=O)Nc5ccc(N6CCCC6)cc5)cc4)ncnc23)cc1 [Example 52, 3-(4-(4-(4-(3-(4-(pyrrolidin-1-yl)phenyl)ureido)phenyl)thieno[3,2-d]pyrimidin-7-yl)phenyl)propanoic acid]
pIC50: > 9.00

O=C(O)CCc1ccc(-c2csc3c(-c4ccc(NC(=O)Nc5ccc(-n6cnnc6)cc5)cc4)ncnc23)cc1 [Example 53, 3-(4-(4-(4-(3-(4-(4H-1,2,4-triazol-4-yl)phenyl)ureido)phenyl)thieno[3,2-d]pyrimidin-7-yl)phenyl)propanoic acid]
pIC50: > 7.30

O=C(O)CCc1ccc(-c2csc3c(-c4ccc(NC(=O)Nc5cccc(C(F)(F)F)c5F)cc4)ncnc23)cc1 [Example 55, 3-(4-(4-(4-(3-(2-fluoro-3-(trifluoromethyl)phenyl)ureido)phenyl)thieno[3,2-d]pyrimidin-7-yl)phenyl)propanoic acid]
pIC50: > 8.30

Cn1cc(-c2ccc(CCC(=O)O)cc2)c2ncnc(-c3ccc(NC(=O)Nc4ccccc4Cl)cc3)c21 [Example 57]
pIC50: > 7.30

CC(C)(C(=O)O)c1ccc(-c2csc3c(-c4ccc(NC(=O)Nc5cccc(Cl)c5)cc4)ncnc23)cc1 [Example 59, 2-(4-(4-(4-(3-(3-chlorophenyl)ureido)phenyl)thieno[3,2-d]pyrimidin-7-yl)phenyl)-2-methylpropanoic acid]
pIC50: > 9.00
